In US8785457B2 (Cellzome Limited, priority 2009, dated 2014):

Assays:
[1] = tested on: Akt serine-473 phosphorylation; test: In vitro Phospho-Akt cellular assay (pAkt S473) in HEK293T/17 cells; assay type: cell-based; details: Homo sapiens, 2 hours
Description: Activation of mTOR signaling results in phosphorylation of several downstream targets. In cells, mTOR exists in two different protein complexes. The mTOR Complex-1 (mTORC1) phosphorylates and activates S6 Kinase 1 (S6K1) and S6 Kinase 2 (S6K2) (also known as p70S6K) which then phosphorylate S6 Ribosomal Protein (S6RP) (also known as RPS6)3. S6RP is phosphorylated on serine 235, serine 236, serine 240 and serine 244 by both pS6K1 and pS6K2. The mTOR Complex-2 (mTORC2) phosphorylates AKT on serine 473 which activates the AKT signaling pathway.
The assay measures a test compound's inhibition of S6RP serine-240/244 phosphorylation and inhibition of Akt serine-473 phosphorylation in human embryonic kidney derived HEK293T/17 cells (ATCC CRL-11268).
The HEK293T/17 cell line is maintained in DMEM media (Invitrogen catalogue number 41965-039) supplemented with 10% FCS at 37° C. in a 5% CO2 humidified incubator.
Cells are seeded in 96-well plates at 40,000 cells/well (pS6RP S240/244 assay) or 80,000 cells/well (pAkt S473 assay) in 90 μl growth media (DMEM, 2% FCS). Plates are incubated for 1 hour in a humidified incubator to allow the cells to adhere. Cells are treated with 8 concentrations of test compounds or DMSO alone for controls (final DMSO concentration 0.1%) and incubated at 37° C. for 2 hours. Then 20 μl of 5× concentrated lysis buffer (750 mM NaCl, 100 mM Tris pH7.4, 5 mM ADTA, 5 mM EGTA, 5% Triton X-100) is added, plates are sealed and incubated for 15 minutes at 4° C. with gentle shaking. After cell lysis, 25 μl cell lysate is transferred to a MesoScale plate coated with an antibody to pS6RP Ser240/244 (MesoScale Discovery K150DGD-3) or an antibody to pAkt Ser 473 (MesoScale Discovery K151DGD-3). Plates have been blocked before by incubation with 150 μl MesoScale Discovery Blocking Solution-A for 1 hour at room temperature followed by washing with 150 μl 1× Tris wash buffer per well. After the transfer of the cell lysate to the MSD plate, the pS6RP (or pAkt) protein is captured on the coated antibody by incubation at room temperature for 1 hour with gentle shaking. After the capture step the plate is washed three times with 150 μl of 1× Tris wash buffer per well. Then 25 μl detection antibody conjugated with a Sulfo-Tag is added and incubated for 1 hour at room temperature with gentle shaking. Subsequently the antibody solution is removed and the plate is washed 3 times with 150 μl×Tris wash buffer per well and 150 μl Read buffer is added. The plates are analysed on a MSD 2400 Plate Reader (MesoScale Discovery). Data analysis is performed using nonlinear regression for a sigmoidal dose-response with a variable slope.

[2] = tested on: Salmonella typhimurium strain TA1535; test: Ames plate assay, TA1535
Experimental: (§1) Certain compounds of the invention were tested for their potential to induce gene mutations in bacterial strains of Salmonella typhimurium (strains TA1535, TA1537, TA98, TA100) and Escherichia coli (strain WP2uvrA(pKM101)) in a bacterial mutation assay in the absence and presence of metabolite activation (rat S9-mix). Compounds are tested at the following dose levels: 50, 150, 500, or 1500 μg/plate.
(§2) Vehicle control treatment is the vehicle used to prepare the test compound formulation diluted to the same extent as the test compound solution. Positive controls using known mutagens are included for each strain with and without rat S9 mix. Four plates are used for the vehicle control and two replicate plates per dose per strain for the treated groups and for each positive control. At the end of incubation the number of revertant colonies per plate are recorded and mean values calculated for each vehicle control, positive control and concentration of test compound used. Results are also expressed as a ratio of the mean values to the mean concurrent vehicle control value (i.e. fold increase).

[3] = tested on: Salmonella typhimurium strain TA1537; test: Ames plate assay, TA1537
Experimental: as §1, §2

[4] = tested on: Salmonella typhimurium strain TA100; test: Ames plate assay, TA100
Experimental: as §1, §2

[5] = tested on: Escherichia coli strain WP2uvrA(pKM101); test: Ames plate assay, WP2uvrA(pKM101)
Experimental: as §1, §2

## CCOC(=O)N1Cc2nc(-c3ccc(NC(=O)NC4CC4)cc3)nc(N3CCOC[C@@H]3C)c2C1 [Example 34, (S)-ethyl 2-(4-(3-cyclopropylureido)phenyl)-4-(3-methylmorpholino)-5H-pyrrolo[3,4-d]pyrimidine-6(7H)-carboxylate]
[1]
  IC50: 21 nM
[2]; TA1535, +S9, 50 μg/Plate
  Ames plate assay TA1535 +S9: −
[2]; TA1535, +S9, 150 μg/Plate
  Ames plate assay TA1535 +S9: −
[2]; TA1535, +S9, 500 μg/Plate
  Ames plate assay TA1535 +S9: −
[2]; TA1535, +S9, 1500 μg/Plate
  Ames plate assay TA1535 +S9: −
[2]; TA1535, −S9, 50 μg/Plate
  Ames plate assay TA1535 −S9: −
[2]; TA1535, −S9, 150 μg/Plate
  Ames plate assay TA1535 −S9: −
[2]; TA1535, −S9, 500 μg/Plate
  Ames plate assay TA1535 −S9: −
[2]; TA1535, −S9, 1500 μg/Plate
  Ames plate assay TA1535 −S9: −
[3]; TA1537, +S9, 50 μg/Plate
  Ames plate assay TA1537 +S9: −
[3]; TA1537, +S9, 150 μg/Plate
  Ames plate assay TA1537 +S9: −
[3]; TA1537, +S9, 500 μg/Plate
  Ames plate assay TA1537 +S9: −
[3]; TA1537, +S9, 1500 μg/Plate
  Ames plate assay TA1537 +S9: −
[3]; TA1537, −S9, 50 μg/Plate
  Ames plate assay TA1537 −S9: −
[3]; TA1537, −S9, 150 μg/Plate
  Ames plate assay TA1537 −S9: −
[3]; TA1537, −S9, 500 μg/Plate
  Ames plate assay TA1537 −S9: −
[3]; TA1537, −S9, 1500 μg/Plate
  Ames plate assay TA1537 −S9: −
[4]; TA100, +S9, 50 μg/Plate
  Ames plate assay TA100 +S9: −
[4]; TA100, +S9, 150 μg/Plate
  Ames plate assay TA100 +S9: −
[4]; TA100, +S9, 500 μg/Plate
  Ames plate assay TA100 +S9: −
[4]; TA100, +S9, 1500 μg/Plate
  Ames plate assay TA100 +S9: −
[4]; TA100, −S9, 50 μg/Plate
  Ames plate assay TA100 −S9: −
[4]; TA100, −S9, 150 μg/Plate
  Ames plate assay TA100 −S9: −
[4]; TA100, −S9, 500 μg/Plate
  Ames plate assay TA100 −S9: −
[4]; TA100, −S9, 1500 μg/Plate
  Ames plate assay TA100 −S9: −
[5]; +S9, 50 μg/Plate
  Ames plate assay WP2uvrA (pKM101) +S9: −
[5]; +S9, 150 μg/Plate
  Ames plate assay WP2uvrA (pKM101) +S9: −
[5]; +S9, 500 μg/Plate
  Ames plate assay WP2uvrA (pKM101) +S9: −
[5]; +S9, 1500 μg/Plate
  Ames plate assay WP2uvrA (pKM101) +S9: −
[5]; −S9, 50 μg/Plate
  Ames plate assay WP2uvrA (pKM101) −S9: −
[5]; −S9, 150 μg/Plate
  Ames plate assay WP2uvrA (pKM101) −S9: −
[5]; −S9, 500 μg/Plate
  Ames plate assay WP2uvrA (pKM101) −S9: −
[5]; −S9, 1500 μg/Plate
  Ames plate assay WP2uvrA (pKM101) −S9: −
